ChEMBL document CHEMBL1135141, “Inhibition of glutathione S-transferase in rat hepatocytes by a glycine-tetrazole modified S-alkyl-GSH analogue” (Bioorg Med Chem Lett, 2002)

What was measured:
Details in all cases: concentration not given here
[1] = target: T1, Glutathione S-transferase Mu 1 (Rattus norvegicus) (UniProt P04905); experiment: Tested for percent inhibition of isolated rat liver cytosolic Glutathione S-transferase 3-3 isoenzyme
T1 sequence (whole entry): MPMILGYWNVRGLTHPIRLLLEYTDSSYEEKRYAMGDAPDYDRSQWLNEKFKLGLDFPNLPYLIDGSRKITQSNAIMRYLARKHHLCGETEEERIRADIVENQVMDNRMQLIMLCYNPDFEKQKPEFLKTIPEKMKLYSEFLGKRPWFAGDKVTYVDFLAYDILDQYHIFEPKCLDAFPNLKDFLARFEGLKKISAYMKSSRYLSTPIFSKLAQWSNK

[2] = target: T2, Glutathione S-transferase Mu 2 (Rattus norvegicus) (UniProt P08010); experiment: Tested for percent inhibition of isolated rat liver cytosolic Glutathione S-transferase 4-4 isoenzyme
T2 sequence (whole entry): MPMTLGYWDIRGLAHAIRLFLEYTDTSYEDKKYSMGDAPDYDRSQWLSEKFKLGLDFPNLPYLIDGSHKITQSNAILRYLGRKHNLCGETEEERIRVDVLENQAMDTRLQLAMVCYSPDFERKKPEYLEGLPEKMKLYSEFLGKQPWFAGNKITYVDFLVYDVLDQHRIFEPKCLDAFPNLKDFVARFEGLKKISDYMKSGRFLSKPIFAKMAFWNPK

[3] = target: Glutathione S-transferase alpha-1 (Rattus norvegicus) (UniProt P00502); experiment: Tested for percent inhibition of isolated rat liver cytosolic Glutathione S-transferase 1-1 isoenzyme
Sequence of Glutathione S-transferase alpha-1 (Rattus norvegicus) (P00502 whole entry, looked up): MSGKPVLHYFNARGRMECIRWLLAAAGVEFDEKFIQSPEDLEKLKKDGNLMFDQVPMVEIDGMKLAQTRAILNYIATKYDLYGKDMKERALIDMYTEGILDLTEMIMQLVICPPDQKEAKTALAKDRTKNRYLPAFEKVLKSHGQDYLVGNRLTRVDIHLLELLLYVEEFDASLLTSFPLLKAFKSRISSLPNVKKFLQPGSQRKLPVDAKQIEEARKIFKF

[4] = target: Glutathione S-transferase alpha-3 (Rattus norvegicus) (UniProt P04904); experiment: Tested for percent inhibition of isolated rat liver cytosolic Glutathione S-transferase 2-2 isoenzyme
Sequence of Glutathione S-transferase alpha-3 (Rattus norvegicus) (P04904 whole entry, looked up): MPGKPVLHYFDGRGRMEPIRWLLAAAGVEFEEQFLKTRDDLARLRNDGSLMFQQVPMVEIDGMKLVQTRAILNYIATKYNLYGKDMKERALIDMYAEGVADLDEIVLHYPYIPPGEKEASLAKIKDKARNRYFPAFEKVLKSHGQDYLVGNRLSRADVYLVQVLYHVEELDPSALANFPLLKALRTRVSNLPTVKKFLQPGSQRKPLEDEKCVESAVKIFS

| inhibition [1] [%] | inhibition [2] [%] | inhibition [3] [%] | inhibition [4] [%] | SMILES |
| --- | --- | --- | --- | --- |
| 65 | 59 | 16 | 53 | CCCCCC(C)SCC(NC(=O)CCC(N)C(=O)O)C(=O)NCc1nn[nH]n1 (stereo not drawn) |
| 95 | 91 | 53 | 98 | CCCCCC(C)SCC(NC(=O)CCC(N)C(=O)O)C(=O)NCC(=O)O (single isomer, unassigned) |
